The results in this text go back to US20140135310A1, “SULPHONAMIDE DERIVATIVES OF ALICYCLIC AMINES FOR THE TREATMENT OF CENTRAL NERVOUS SYSTEM DISEASES” (Adamed Sp. z o.o., priority 2011, published 2014).

For assay [1], the target named is T1, 5-HT2A receptor (Homo sapiens, UniProt P28223).
T1 construct: purchased PerkinElmer
Kind of assay: Radioligand binding assay, serotoninergic 5-HT2A receptors. To be noted: for inhibition at 1 µM: binding assay result in %, Table 5a; for pKi: read-out: Inhibition constants Ki, 5-HT2A. In short, it runs like this:
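Competition curves from scintillation-counted specific binding (total minus binding with excess unlabelled ligand) were Hill-fitted to give IC50, converted to Ki via Cheng-Prusoff using Scatchard-derived Kd.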

Assay [2] has as its target T2, receptors D4.4 (Homo sapiens, UniProt P21917).
T2 sequence (P21917 1-419): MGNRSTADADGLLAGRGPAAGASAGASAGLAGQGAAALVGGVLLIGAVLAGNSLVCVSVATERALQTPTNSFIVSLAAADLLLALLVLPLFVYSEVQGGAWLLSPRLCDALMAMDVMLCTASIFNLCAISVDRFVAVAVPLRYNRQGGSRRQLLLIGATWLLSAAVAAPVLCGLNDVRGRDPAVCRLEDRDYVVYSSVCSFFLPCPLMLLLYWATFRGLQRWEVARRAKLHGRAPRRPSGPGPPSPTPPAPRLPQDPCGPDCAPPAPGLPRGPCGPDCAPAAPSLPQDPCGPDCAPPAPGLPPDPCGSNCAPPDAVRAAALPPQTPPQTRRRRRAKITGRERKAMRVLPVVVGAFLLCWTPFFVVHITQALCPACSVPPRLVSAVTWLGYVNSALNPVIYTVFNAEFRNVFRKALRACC
Kind of assay: Radioligand binding assay, dopaminergic D4 (D4.4) receptors. To be noted: test compound 1×10^−6 M. In short, it runs like this: (§1)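 Scintillation read-out. Specific = total − nonspecific (excess cold ligand). Data as % of control specific binding / % inhibition; IC50 by Hill fit; Ki = IC50/(1+L/KD), KD from Scatchard plot.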

The target in assay [3] is 5-HT7 serotoninergic receptors (Homo sapiens, UniProt P34969). Kind of assay: Cellular functional assay, 5-HT7 serotoninergic receptors. Format: cell-based. To be noted: for 5-HT7 ag [%]: agonist mode, percent of control specific agonist response. As to the method:
The results are expressed as a percent of control specific agonist response ((measured specific response/control specific agonist response)×100) obtained in the presence of the test compounds.
The EC50 values (concentration producing a half-maximal specific response) and IC50 values (concentration causing a half-maximal inhibition of the control specific agonist response) were determined by non-linear regression analysis of the concentration-response curves generated with mean replicate values using Hill equation curve fitting (Y=D+[(A−D)/(1+(C/C50)nH)], where Y=specific response, D=minimum specific response, A=maximum specific response, C=compound concentration, and C50=EC50 or IC50, and nH=slope factor). This analysis was performed using a software developed at Cerep (Hill software) and validated by comparison with data generated by the commercial software SigmaPlot® 4.0 for Windows® (© 1997 by SPSS Inc.).
For the antagonists, the apparent dissociation constants (Kb) were calculated using the modified Cheng Prusoff equation (Kb=IC50/(1+(A/EC50A)), where A=concentration of reference agonist in the assay, and EC50A=EC50 value of the reference agonist).

Assay [4] concerns the target dopaminergic receptors D3 (Homo sapiens, UniProt P35462). Kind of assay: Radioligand binding assay, dopaminergic D3 receptors. To be noted: test compound 1×10^−6 M. In short, it runs like this:
as §1

The target in assay [5] is T3, M3 muscarinic receptors (Homo sapiens, UniProt P20309).
T3 construct: expressed in transfected cells; host or cells: CHO cells
Kind of assay: Radioligand binding assay, muscarinic M3 receptors. To be noted: test compound 1×10^−6 M. In short, it runs like this: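 Radioligand competition binding, detected by scintillation counting; non-specific binding defined with excess unlabelled ligand. Results given as % inhibition of control specific binding; IC50 from Hill-equation fit of competition curves, Ki via Cheng-Prusoff with radioligand KD from Scatchard plot.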

The target of assay [6] is T4, 5-HT6 receptor (Homo sapiens, UniProt P50406).
T4 construct: purchased PerkinElmer
Kind of assay: Radioligand binding assay, serotoninergic 5-HT6 receptors. To be noted: for inhibition at 1 µM: binding assay result in %, Table 5a; for pKi: read-out: Inhibition constants Ki, 5-HT6. In short, it runs like this: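 Values are Ki from Cheng–Prusoff, taking IC50 from Hill nonlinear regression of competition curves and KD from a Scatchard plot. Specific binding was total minus binding with excess unlabelled ligand. Radioligand displacement was detected by scintillation counting, and data were also reported as percent of control specific binding.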

In assay [7] the test system is α1 adrenergic receptors (rat cerebral cortex). Kind of assay: Radioligand binding assay, adrenergic α1 receptors. To be noted: test compound 1×10^−6 M. In short, it runs like this: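 Values derive from radioligand displacement, with non-specific binding defined by excess cold ligand and detection by scintillation. Hill-fit IC50s were converted to Ki via Cheng-Prusoff using Scatchard-derived Kd; percent inhibition of control specific binding also reported.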

Assay [8] relates to σ receptors. Kind of assay: Radioligand binding assay, σ receptors. To be noted: rat cerebral cortex, [3H]DTG 8 nM. An excerpt:
The specific ligand binding to the receptors is defined as the difference between the total binding and the non-specific binding determined in the presence of the excess of unlabelled ligand.
The results are expressed as a percent of control specific binding ((measured specific binding/control specific binding)×100) and as a percent inhibition of control specific binding (100−((measured specific binding/control specific binding)×100)) obtained in the presence of the test compounds. The specific ligand binding to the receptors is defined as the difference between the total binding and the nonspecific binding determined in the presence of an excess of unlabelled ligand. Scintillation counting was the method of detection of ligand binding. The IC50 values (concentration causing a half-maximal inhibition of control specific binding) were determined by non-linear regression analysis of the competition curves generated with mean replicate values using Hill equation curve fitting (Y=D+[(A−D)/(1+(C/C50)nH)], where Y=specific binding, D=minimum specific binding, A=maximum specific binding, C=compound concentration, C50=IC50, and nH=slope factor). […] The inhibition constants (Ki) were calculated using the Cheng Prusoff equation (Ki=IC50/(1+(L/KD)), where L=concentration of radioligand in the assay, and KD=affinity of the radioligand for the receptor). A scatchard plot was used to determine the Kd.

pKi: −log10 of the molar value.

T4 sequence (P50406 whole entry): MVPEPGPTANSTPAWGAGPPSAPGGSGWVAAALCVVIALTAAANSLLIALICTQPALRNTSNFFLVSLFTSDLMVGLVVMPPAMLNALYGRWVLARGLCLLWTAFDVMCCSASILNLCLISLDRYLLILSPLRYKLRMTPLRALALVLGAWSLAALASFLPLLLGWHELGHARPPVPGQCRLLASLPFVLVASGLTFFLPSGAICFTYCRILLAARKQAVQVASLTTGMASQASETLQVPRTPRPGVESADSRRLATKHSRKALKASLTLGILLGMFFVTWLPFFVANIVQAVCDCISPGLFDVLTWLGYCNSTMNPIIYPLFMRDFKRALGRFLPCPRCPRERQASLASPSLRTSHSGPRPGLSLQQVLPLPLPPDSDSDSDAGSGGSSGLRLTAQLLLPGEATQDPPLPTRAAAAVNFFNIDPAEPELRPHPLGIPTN
5-HT7 serotoninergic receptors, sequence (P34969 whole entry): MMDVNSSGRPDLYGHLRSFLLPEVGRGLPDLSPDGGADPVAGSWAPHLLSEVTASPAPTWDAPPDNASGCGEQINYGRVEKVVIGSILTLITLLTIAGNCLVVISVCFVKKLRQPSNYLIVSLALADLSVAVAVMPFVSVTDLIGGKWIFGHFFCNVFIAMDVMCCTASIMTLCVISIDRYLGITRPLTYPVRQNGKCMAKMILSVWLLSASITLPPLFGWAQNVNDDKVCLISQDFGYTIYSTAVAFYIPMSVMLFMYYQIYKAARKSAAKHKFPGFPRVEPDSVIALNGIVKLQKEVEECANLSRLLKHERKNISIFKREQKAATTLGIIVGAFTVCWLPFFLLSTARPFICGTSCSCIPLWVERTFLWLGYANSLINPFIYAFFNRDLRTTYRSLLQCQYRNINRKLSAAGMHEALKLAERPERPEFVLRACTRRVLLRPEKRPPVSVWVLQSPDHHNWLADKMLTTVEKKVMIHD
T3 sequence (P20309 whole entry): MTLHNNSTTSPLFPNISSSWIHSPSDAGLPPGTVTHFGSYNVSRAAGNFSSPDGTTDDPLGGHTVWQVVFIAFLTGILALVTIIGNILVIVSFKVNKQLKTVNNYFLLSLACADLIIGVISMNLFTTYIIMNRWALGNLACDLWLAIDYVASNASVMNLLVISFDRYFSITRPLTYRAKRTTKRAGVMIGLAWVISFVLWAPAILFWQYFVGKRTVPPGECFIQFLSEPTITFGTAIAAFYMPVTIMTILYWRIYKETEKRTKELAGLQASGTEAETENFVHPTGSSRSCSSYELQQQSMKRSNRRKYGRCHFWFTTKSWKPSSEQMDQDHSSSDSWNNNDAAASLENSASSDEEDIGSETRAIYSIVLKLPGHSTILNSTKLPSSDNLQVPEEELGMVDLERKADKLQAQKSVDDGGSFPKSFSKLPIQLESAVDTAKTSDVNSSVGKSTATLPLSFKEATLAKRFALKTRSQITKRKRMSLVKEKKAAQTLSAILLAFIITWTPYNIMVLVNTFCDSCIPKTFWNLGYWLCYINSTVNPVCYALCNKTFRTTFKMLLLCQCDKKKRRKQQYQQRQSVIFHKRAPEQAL
T1 sequence (P28223 whole entry): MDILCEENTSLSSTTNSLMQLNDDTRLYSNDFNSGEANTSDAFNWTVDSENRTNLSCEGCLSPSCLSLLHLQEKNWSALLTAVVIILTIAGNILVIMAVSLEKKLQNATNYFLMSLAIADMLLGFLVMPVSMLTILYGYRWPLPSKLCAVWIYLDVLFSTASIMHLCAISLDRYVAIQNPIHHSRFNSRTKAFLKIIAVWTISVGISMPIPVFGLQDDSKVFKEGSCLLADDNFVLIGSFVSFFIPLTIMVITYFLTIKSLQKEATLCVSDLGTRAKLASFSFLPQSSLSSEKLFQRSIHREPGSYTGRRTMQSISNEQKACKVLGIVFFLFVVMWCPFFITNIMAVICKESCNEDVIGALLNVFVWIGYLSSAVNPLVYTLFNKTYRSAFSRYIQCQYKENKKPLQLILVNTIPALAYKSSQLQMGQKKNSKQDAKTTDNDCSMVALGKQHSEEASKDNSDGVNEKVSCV
dopaminergic receptors D3, sequence (P35462 whole entry): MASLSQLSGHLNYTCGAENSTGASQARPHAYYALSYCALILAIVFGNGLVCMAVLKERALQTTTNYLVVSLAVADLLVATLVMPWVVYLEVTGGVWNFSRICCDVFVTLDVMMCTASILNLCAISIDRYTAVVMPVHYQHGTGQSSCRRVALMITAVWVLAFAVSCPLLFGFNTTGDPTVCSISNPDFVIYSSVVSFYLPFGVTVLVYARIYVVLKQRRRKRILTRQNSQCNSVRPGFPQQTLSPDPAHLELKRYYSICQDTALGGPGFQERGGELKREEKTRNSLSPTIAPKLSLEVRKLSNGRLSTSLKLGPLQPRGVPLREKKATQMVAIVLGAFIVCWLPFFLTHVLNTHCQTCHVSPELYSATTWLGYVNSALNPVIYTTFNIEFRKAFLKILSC

Regarding `O=S(=O)(N[C@@H]1CCN(CCCc2noc3cc(F)ccc23)C1)c1cc2ccccc2s1` [Compound 196, N-[(3R)-1-[3-(6-Fluoro-1,2-benzoxazol-3-yl)propyl]pyrrolidin-3-yl]benzo-thiophene-2-sulphonamide], the inhibition – broadly, the change of the read-out against control, counted positive when it falls – at 1 µM was found to be 100% in assay [1]; 78% in assay [2]; 94% in assay [4]; 11% in assay [5]; 99% in assay [6]. In addition, the pKi (as a rule, the Ki on a negative log10 scale, so that one unit is a factor of ten) was 9.40 in assay [1] and 8.19 in assay [6]. Also, the “5-HT7 ag [%]” value in assay [3] was 0%. In addition, the Kb in assay [3] (apparent dissociation constant, modified Cheng Prusoff equation, read-out: 5-HT7 antag Kb) turned out to be 0.57 nM. For the same compound, the “α1 [%]” value in assay [7] came out at 95%.
With `O=S(=O)(N[C@H]1CCN(CCCc2noc3cc(F)ccc23)C1)c1cc2ccccc2s1` [Compound 197, N-[(3S)-1-[3-(6-Fluoro-1,2-benzoxazol-3-yl)propyl]pyrrolidin-3-yl]benzo-thiophene-2-sulphonamide], the inhibition at 1 µM stood at 99% in assay [1]; 81% in assay [2]; 83% in assay [4]; 26% in assay [5]; 97% in assay [6]. Moreover, the pKi in assay [1] is 9.15; in assay [6] it was 7.80. In addition, in assay [3], the “5-HT7 ag [%]” value worked out at 0%. Also, the “α1 [%]” value in assay [7] was found to be 93%.
As for `O=S(=O)(N[C@@H]1CCN(CCCc2noc3cc(F)ccc23)C1)c1ccc2cc(Cl)ccc2c1` [Compound 200, 6-Chloro-N-[(3R)-1-[3-(6-fluoro-1,2-benzoxazol-3-yl)propyl]pyrrolidin-3-yl]naphthalene-2-sulphonamide], the inhibition at 1 µM was 99% in assay [1]; 49% in assay [2]; 94% in assay [4]; 3% in assay [5]; 99% in assay [6]. For the same compound, the results for the pKi in assay [1] and in assay [6] were 8.64 and 8.00, respectively. For the same compound, the “5-HT7 ag [%]” value in assay [3] is recorded as −1%. Besides, in assay [7], the “α1 [%]” value is 85%.
Take `COc1ccc2cc(S(=O)(=O)N[C@@H]3CCN(CCCc4noc5cc(F)ccc45)C3)ccc2c1` [Compound 230, N-[(3R)-1-[3-(6-Fluoro-1,2-benzoxazol-3-yl)propyl]pyrrolidin-3-yl]-6-methoxy-naphthalene-2-sulphonamide]: the results for the pKi in assay [1] and in assay [6] were 9.40 and 7.82, respectively. Also, the inhibition at 1 µM in assay [2] was 88%; in assay [4], 99%; in assay [5] it was 15%; in assay [6] it was 96%. Also, in assay [8], the “σ [%]” value was found to be 90%. Besides, in assay [7], the “α1 [%]” value is 83%.
As for `COc1ccc2cc(S(=O)(=O)N[C@H]3CCN(CCCc4noc5cc(F)ccc45)C3)ccc2c1` [Compound 231, N-[(3S)-1-[3-(6-Fluoro-1,2-benzoxazol-3-yl)propyl]pyrrolidin-3-yl]-6-methoxy-naphthalene-2-sulphonamide], the values for the pKi in assay [1] and in assay [6] were 8.72 and 7.10, respectively. Besides, the inhibition at 1 µM came out at 89% in assay [2], 91% in assay [4], 22% in assay [5] and 86% in assay [6]. Further, the “σ [%]” value in assay [8] is recorded as 87%. Moreover, the “α1 [%]” value in assay [7] came to 79%.
On to `O=S(=O)(NCC1CCN(CCCc2noc3cc(F)ccc23)C1)c1ccc2cc(Cl)ccc2c1` (stereo not drawn) [Compound 237, 6-Chloro-N-[[1-[3-(6-fluoro-1,2-benzoxazol-3-yl)propyl]pyrrolidin-3-yl]methyl]naphthalene-2-sulphonamide], for which the inhibition at 1 µM in assay [1] stood at 97%; in assay [2], 48%; in assay [4], 89%; in assay [5] it was 16%; in assay [6] it was 87%. Moreover, the “σ [%]” value in assay [8] is 88%. The “α1 [%]” value in assay [7] turned out to be 88%.
Regarding `Cc1c(S(=O)(=O)NCC2CCN(CCCc3noc4cc(F)ccc34)C2)sc2ccc(Cl)cc12` (stereo not drawn) [Compound 238, 5-Chloro-N-[[1-[3-(6-fluoro-1,2-benzoxazol-3-yl)propyl]pyrrolidin-3-yl]methyl]-3-methyl-benzothiophene-2-sulphonamide], the inhibition at 1 µM was found to be 99% in assay [1]; 48% in assay [2]; 95% in assay [4]; 26% in assay [5]; 96% in assay [6]. Moreover, the pKi in assay [1] was 8.52; in assay [6], 7.77. Besides, the “σ [%]” value in assay [8] is reported as 95%. Also, the “α1 [%]” value in assay [7] amounted to 82%.
Take `O=S(=O)(NCC1CCN(CCCc2noc3cc(F)ccc23)C1)c1ccc(-c2ccccc2)cc1` (stereo not drawn) [Compound 241, N-[[1-[3-(6-Fluoro-1,2-benzoxazol-3-yl)propyl]pyrrolidin-3-yl]methyl]-4-phenyl-benzenesulphonamide]: the inhibition at 1 µM was determined as 97% in assay [1]; 33% in assay [2]; 87% in assay [4]; 19% in assay [5]; 68% in assay [6]. The “σ [%]” value in assay [8] is 88%. The “α1 [%]” value in assay [7] stood at 62%.
On to `Cn1ccc2cc(S(=O)(=O)NCC3CCN(CCOc4cccc5c4OCCO5)C3)ccc21` (stereo not drawn) [Compound 308, N-[[1-[2-(2,3-Dihydro-1,4-benzodioxin-5-yloxy)ethyl]pyrrolidin-3-yl]methyl]-1-methyl-indole-5-sulphonamide], for which the inhibition at 1 µM turned out to be 91% in assay [1]; 26% in assay [2]; 43% in assay [4]; 13% in assay [5]; 44% in assay [6]. For the same compound, the “σ [%]” value in assay [8] was determined as 91%. Moreover, in assay [7], the “α1 [%]” value is recorded as 69%.
For the compound `Cc1cc(S(=O)(=O)NCC2CCN(CCOc3cccc4c3OCCO4)C2)c(C)s1` (stereo not drawn) [Compound 312, N-[[1-[2-(2,3-Dihydro-1,4-benzodioxin-5-yloxy)ethyl]pyrrolidin-3-yl]methyl]-2,5-dimethylthiophene-3-sulphonamide], the inhibition at 1 µM came out at 87% in assay [1]; 52% in assay [2]; 36% in assay [4]; 10% in assay [5]; 19% in assay [6]. For the same compound, the “σ [%]” value in assay [8] was found to be 92%. Also, the “α1 [%]” value in assay [7] turned out to be 65%.
